Results as given in patent US10300074B2, “Use of inhibitor of apoptosis protein (IAP) antagonists in HIV therapy” (Sanford-Burnham Medical Research Institute, priority 2014, dated 2019).

Tests used:
[1] = test system: latently infected JLat 10.6 cells; settings: for Activation of HIV transcription, combination versus components alone: in combination with Compound 35, 24 hours; for Reactivation of latent HIV (GFP reporter expression): single agent, 24 hours
[2] = biological target: ML-IAP (Homo sapiens (Human), UniProt Q96CA5); test: ML-IAP Ki; type: binding
ML-IAP, sequence (Q96CA5 whole entry): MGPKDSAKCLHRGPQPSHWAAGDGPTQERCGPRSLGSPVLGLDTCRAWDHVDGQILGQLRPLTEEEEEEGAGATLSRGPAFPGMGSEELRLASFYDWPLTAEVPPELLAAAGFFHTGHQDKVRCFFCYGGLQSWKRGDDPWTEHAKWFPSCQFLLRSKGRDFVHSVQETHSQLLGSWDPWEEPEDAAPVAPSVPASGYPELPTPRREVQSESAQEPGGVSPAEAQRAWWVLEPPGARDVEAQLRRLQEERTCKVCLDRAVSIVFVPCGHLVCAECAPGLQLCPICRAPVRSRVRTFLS

[3] = biological target: XIAP BIR1/2 (Homo sapiens (Human), UniProt P98170); test: XIAP BIR1/2 Ki; type: binding
XIAP BIR1/2, sequence (P98170 1-240): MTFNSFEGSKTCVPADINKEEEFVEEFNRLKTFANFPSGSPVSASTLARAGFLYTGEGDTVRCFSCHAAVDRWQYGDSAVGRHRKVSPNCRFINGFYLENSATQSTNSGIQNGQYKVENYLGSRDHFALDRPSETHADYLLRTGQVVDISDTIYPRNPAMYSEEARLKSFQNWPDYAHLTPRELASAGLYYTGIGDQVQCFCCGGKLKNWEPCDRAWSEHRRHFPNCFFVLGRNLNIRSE

[4] = biological target: XIAP BIR3 (Homo sapiens (Human), UniProt P98170); test: XIAP BIR3 Ki; type: binding
XIAP BIR3, sequence (P98170 241-356): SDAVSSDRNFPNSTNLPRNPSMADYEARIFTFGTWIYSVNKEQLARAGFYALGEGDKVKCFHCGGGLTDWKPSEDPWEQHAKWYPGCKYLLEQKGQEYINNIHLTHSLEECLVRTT

[5] = test system: Latently infected Jurkat JLat 10.6 cells; settings: HDAC inhibitor in combination with Compound 35, 36 hours, normalized against background of HDAC inhibitor alone
[6] = test system: HEK 293T cells infected with HIV-VSVg; type: cell-based

With `CC(=O)NCCCCCCNC(C)=O` [HMBA, hexamethylbisacetamide] the “Activation of HIV transcription, combination versus components alone” value [1] was “greater effect than treatment with any of the components alone”.
In the case of `CN[C@@H](C)C(=O)N[C@H]1CCO[C@H]2c3ccccc3C(C(=O)N[C@@H]3CCCc4ccccc43)N2C1=O` (stereo partly shown) [Compound 17a], the Ki ([2]; Table 2-2) is reported as ≤ 25 µM, the Ki ([3]; Table 2-2) is reported as > 50 µM and the Ki ([4]; Table 2-2) is reported as ≤ 25 µM.
For `CN[C@@H](C)C(=O)N[C@H]1CCO[C@H]2c3ccccc3C(C(=O)N[C@@H]3CCCc4ccccc43)N2C1=O` (stereo partly shown) [Compound 27], the Ki ([2]; Table B-1) was ≤ 25 µM, the Ki ([3]; Table B-1) was > 50 µM and the Ki ([4]; Table B-1) was ≤ 25 µM.
With `CN[C@@H](C)C(=O)N[C@H]1CCO[C@H]2CCC(C(=O)N[C@@H]3CCCc4ccccc43)N2C1=O` (stereo partly shown) [Compound 12] the Ki ([2]; Table B-1) was ≤ 25 µM, the Ki ([3]; Table B-1) was > 50 µM and the Ki ([4]; Table B-1) was ≤ 25 µM.
`O=C(CCCCCCC(=O)Nc1ccccc1)NO` [Vorinostat, vorinostat] was tested, and the “Group: increase of GFP+ cells” value [5] was “A (A 0-25%)” and the “Activation of HIV transcription, combination versus components alone” value [1] was “greater effect than treatment with any of the components alone”.
For `CN[C@@H](C)C(=O)N[C@H]1CCO[C@H]2CC(C)(C)[C@@H](C(=O)N[C@@H]3CCCc4ccccc43)N2C1=O` [Compound 26], the Ki ([2]; Table B-1) was ≤ 25 µM, the Ki ([3]; Table B-1) was ≤ 25 µM and the Ki ([4]; Table B-1) was ≤ 25 µM.
For `CN[C@@H](C)C(=O)N[C@H]1CCS[C@H]2CC[C@H](C(=O)N[C@@H]3CCCc4ccccc43)N2C1=O` [Compound 36], the Ki ([2]; Table B-1) was ≤ 25 µM, the Ki ([3]; Table B-1) was > 50 µM and the Ki ([4]; Table B-1) was ≤ 25 µM.
In the case of `CN[C@@H](C)C(=O)N[C@H]1CCO[C@H]2CC3(CC=CC3)C(C(=O)N[C@@H]3CCCc4ccccc43)N2C1=O` (stereo partly shown) [Compound 42], the Ki ([2]; Table B-1) is reported as ≤ 25 µM, the Ki ([3]; Table B-1) is reported as ≤ 25 µM and the Ki ([4]; Table B-1) is reported as ≤ 25 µM.
With `CN[C@@H](C)C(=O)N[C@H]1CCS[C@H]2CC[C@@H](C(=O)N[C@@H]3CCCc4ccccc43)N2C1=O` [Compound 34] the Ki ([2]; Table B-1) was ≤ 25 µM, the Ki ([3]; Table B-1) was > 50 µM and the Ki ([4]; Table B-1) was ≤ 25 µM.
With `CN[C@@H](C)C(=O)N[C@H]1CCO[C@H]2CC(C)(C)C(C(=O)N[C@@H]3CCCc4ccccc43)N2C1=O` (stereo partly shown) [Compound 17b] the Ki ([2]; Table 2-2) was ≤ 25 µM, the Ki ([3]; Table 2-2) was ≤ 25 µM and the Ki ([4]; Table 2-2) was ≤ 25 µM.
For `CC[C@H](NC(=O)[C@H](C)NC)C(=O)N1C[C@@H](O)C[C@H]1Cc1c(-c2[nH]c3cc(F)ccc3c2C[C@@H]2C[C@H](O)CN2C(=O)[C@H](CC)NC(=O)[C@H](C)NC)[nH]c2cc(F)ccc12` [TL32711], the “Reactivation of latent HIV (GFP reporter expression)” value [1] was “Reactivation of latent HIV in JLat 10.6 cells was achieved”.
In the case of `CN[C@@H](C)C(=O)N[C@H]1CCS[C@H]2CC(C)(C)C(C(=O)N[C@@H]3CCCc4ccccc43)N2C1=O` (stereo partly shown) [Compound 35], the Ki ([2]; Table B-1) is reported as ≤ 25 µM, the Ki ([3]; Table B-1) is reported as ≤ 25 µM and the “Viral gene transcription as measured by luciferase expression” value [6] is reported as “enhancement of viral gene transcription, as measured by luciferase expression, was proportional to the loss of BIRC2/cIAP1 protein”. For the same molecule, the Ki ([4]; Table B-1) was ≤ 25 µM and the “Reactivation of latent HIV (GFP reporter expression)” value [1] was “caused reactivation of HIV”.
For `CN[C@@H](C)C(=O)N[C@H]1CCS[C@H]2CCC(C(=O)N[C@@H]3CCCc4ccccc43)N2C1=O` (stereo partly shown) [Compound 24], the Ki ([2]; Table B-1) was ≤ 25 µM, the Ki ([3]; Table B-1) was > 50 µM and the Ki ([4]; Table B-1) was ≤ 25 µM.
With `Cc1[nH]c2ccccc2c1CCNCc1ccc(/C=C/C(=O)NO)cc1` [Panobinostat, panobinostat] the “Activation of HIV transcription, combination versus components alone” value [1] was “greater effect than treatment with any of the components alone”.
